These results are taken from patent US8357676B2, “Ansamycin formulations and methods of use thereof” (Infinity Discovery, Inc., priority 2006, dated 2013).

≈ marks a conversion by molar mass, not a printed value.

For series [1], the system named is H1975, a non-small cell lung cancer cell line. Description: H1975 mouse xenograph tumor model. The format is in vivo, Nu/Nu mice. Conditions: 5% DMSO, 75% NS, oral gavage every other day. On the procedure: In the first study, H1975, a non-small cell lung cancer cell line which contains L858R and T790M mutations in EGFR, a client protein for HSP90 was utilized. 5-6 week old Nu/Nu mice were implanted with 10×10e6H1975 cells. Dosing commenced after implanted cells reached ˜150 mm3. Dosing was by oral gavage and the dosing schedule was every other day with vehicle (20% PGHS, 5% DMSO, 75% NS), and 75 mg/kg, and 100 mg/kg 17-AG in vehicle.

Series [2] in a line: Equilibrium solubility in SIF. The format is physicochemical. Conditions: simulated intestinal fluid (SIF), pH 6.8, fassgf or other biorelevant, thermodynamic from solid. On the procedure:
Solutions were placed at 37° C., and sample aliquots were removed at 24, 48, 72, & 96 hours. Sample aliquots were filtered (0.45 uM PVDF), diluted in SIF/MeOH and measured in triplicate on UV spectrometer.

A short description of series [3]: Supersaturated levels of 17-AG in SIF pH 6.8 with PVP (DMSO stock diluted 1:100). The format is physicochemical. Conditions: for 17-AG Supersaturated Concentration: 37° C., average values. As for the experimental part: Supersaturated levels of 17-AG was measured by adding 17-AG DMSO stock solutions (10, 50, 100, & 200 mg/ml) at a 1:100 dilution to SIF pH 6.8 solutions containing 0%, 0.5%, 1%, 2.5%, & 5% PVP (w/v). […] Solutions were stirred in a dissolution apparatus (Paddle speed 150 RPM, 37° C.), and aliquots of each solution were removed at 15, 30, 60, 120, 240, 360, & 1320 minute time points. Sample aliquots were filtered (0.45 uM PVDF), diluted in SIF/MeOH and measured in triplicate on UV spectrometer. Representative data are found in FIG. 25 and FIG. 26.

A short description of series [4]: In vitro dissolution of amorphous solid dispersions in simulated intestinal fluid at 37° C. To be noted: SIF 37° C., t = 5 min. The format is physicochemical. As for the experimental part: […] To each vial was added simulated intestinal fluid (5 mL) and each was shaken at 37° C. […] The samples were then diluted in MeOH and tested using UV method for solution concentration.

In series [5] the test system is H1650 lung adenocarcinoma cell line. As to the kind of experiment: H1650 mouse xenograph tumor model. The format is in vivo, Nu/Nu mice. To be noted: 50, 75 and 100 mg/kg 17-AG in 15% PVP, 5% EtOH, 80% PG, oral gavage every day. As for the experimental part: In the second study, H1650 lung adenocarcinoma cell line which contains a mutant form of EGFR (Del E746-A750) was utilized. 5-6 week old Nu/Nu mice were implanted with 10×10e6H1650 cells. Dosing commenced after implanted cells reached ˜100 mm3. Dosing was by oral gavage and the dosing schedule was every day with vehicle (15% PVP, 5% EtOH, 80% PG), and 50 mg/kg, 75 mg/kg, and 100 mg/kg 17-AG in vehicle.

For the compound `CO[C@H]1/C=C\C=C(/C)C(=O)NC2=CC(=O)C(N)=C(C[C@@H](C)C[C@H](OC)[C@H](O)[C@@H](C)/C=C(\C)[C@@H]1OC(N)=O)C2=O` [17-AG, 17-amino-geldanamycin], the “reduction in tumor volume as compared to vehicle treated animals” value is approximately 35% in series [1] (75 mg/kg 17-AG in 20% PGHS) and approximately 70% in series [1] (100 mg/kg 17-AG in 20% PGHS). Further, in series [2] (37 °C), the solubility is 4 µg/mL (≈ 7.33 µM). Besides, the solubility thermodynamic in series [2] (SIF, 37° C., read-out: Equilibrium solubility of 17-AG in SIF @ 37° C.) was 4 µg/mL (≈ 7.33 µM). Besides, the “time at which 17-AG starts to precipitate out” value in series [3] (1.0 mg/ml solution in 5% PVP) was 120 min. Besides, the “17-AG Supersaturated Concentration” value in series [3] (SIF pH 6.8, 0% PVP) is 0.5 mg/mL; in series [3] (SIF pH 6.8, 0.5% PVP), 0.6 mg/mL; in series [3] (SIF pH 6.8, 1.0% PVP), 0.7 mg/mL; in series [3] (SIF pH 6.8, 5.0% PVP) it was 0.9 mg/mL. In series [3] (SIF pH 6.8, 5% PVP vs 0% PVP), the “increase of degree of supersaturation of 17-AG” value is given as approximately 2 fold. Also, in series [3] (SIF without PVP), the “time at which 17-AG starts to precipitate and come out of solution” value was “approximately 120 minutes”. The “Supersaturated concentration of analog/polymer dispersions in SIF at 37° C. (t = 5 min)” value in series [4] (12% load analog in PVP K-30 amorphous dispersion, target conc 2 mg/mL) was 0.712 mg/ml. Besides, in series [4] (12% load analog in PVP K-30 dispersion), the “Fold increase relative to equilibrium solubility” value is listed as 200 x. The “maximum reduction in tumor volume as compared to vehicle treated animals” value in series [5] worked out at 62%.
